Results reported in patent publication US6828320B2, “Heterocyclic compounds” (SmithKline Beecham Corporation, priority 1996, dated 2004).
pIC50: −log10 of the molar value. Structures can show the parent of a compound that is named as a salt. Where two headings read alike, the source gives them in different places.

How the values were obtained:
[1] = target: T1, EGFr isolated from solubilised A431 cell membranes (Homo sapiens, UniProt P00533); test: Substrate phosphorylation assay, EGFr; type: biochemical; settings: 30 minutes, room temperature, ATP and peptide at Km concentrations
T1 construct: EGFr isolated from solubilised A431 cell membranes; endogenous in cells; host or cells: A431 cell membranes (solubilised)
Description: (§1) The substrate phosphorylation assays use baculovirus expressed, recombinant constructs of the intracellular domains of c-erbB-2 and c-erbB-4 that are constitutively active and EGFr isolated from solubilised A431 cell membranes. The method measures the ability of the isolated enzymes to catalyse the transfer of the γ-phosphate from ATP onto tyrosine residues in a biotinylated synthetic peptide (Biotin-[…]. […] The reaction is stopped by the addition of EDTA (final concentration 0.15 mM) and a sample is transferred to a streptavidin-coated 96-well plate. The plate is washed and level of phosphotyrosine on the peptide is determined using a Europium-labelled antiphosphotyrosine antibody and quantified with a time-resolved fluorescence technique.

[2] = target: T2, c-erbB-2 (baculovirus expressed, recombinant intracellular domain) (Homo sapiens, UniProt P04626); test: Substrate phosphorylation assay, c-erbB-2; type: biochemical; settings: read-out: Substrate Phosphorylation erbB-2
T2 construct: baculovirus expressed, recombinant constructs of the intracellular domains of c-erbB-2 and c-erbB-4; made in house
Description: as §1

[3] = target: HB4a cell line transformed by over-expression of c-erbB-2 (Homo sapiens, UniProt P04626); test: Cell proliferation assay, HB4a erbB-2; type: cell-based; settings: 4 days at 37° C., methylene blue staining; read-out: Cell Proliferation HB4a erbB-2
Description: The cell proliferation assay uses an immortalised human breast epithelial cell line (HB4a) which has been transformed by over-expression of c-erbB-2. Growth of these cells in low serum is dependent upon the c-erbB-2 tyrosine kinase activity. […] Cells are plated at 3000/ well in 96-well plates in 0.1 ml medium and allowed to attach overnight. test compound is added in 0.1 ml medium, with a final concentration of 0.5% DMSO, and the plates incubated for 4 days at 37° C. The cells are then examined microscopically for evidence of morphological detransformation and cell mass is estimated by staining with methylene blue and measuring the absorbance at 620 nm. […] Activity against a range of naturally occurring EGFr or c-erbB-2 over-expressing human tumour cell lines (BT474-breast, HN5-head and neck, N87-gastric and Calu3-lung) is assessed with selected compounds by the same methodology.

[4] = tested on: HB4a cell line transfected with ras; test: Cell proliferation assay, HB4a ras; type: cell-based, human; settings: 4 days at 37° C., methylene blue staining, general toxicity control, read-out: Cell Proliferation HB4a ras
[5] = tested on: BT474-breast tumour cell line; test: Cell proliferation assay, BT474; type: cell-based, human; settings: same methodology, 4 days
Description: (§2) The cell proliferation assay uses an immortalised human breast epithelial cell line (HB4a) which has been transformed by over-expression of c-erbB-2. Growth of these cells in low serum is dependent upon the c-erbB-2 tyrosine kinase activity. The specificity of the effect of the test compounds on tyrosine kinase dependent growth over general toxicity is assessed by comparison to an HB4a cell line which has been transfected with ras. Cells are plated at 3000/ well in 96-well plates in 0.1 ml medium and allowed to attach overnight. test compound is added in 0.1 ml medium, with a final concentration of 0.5% DMSO, and the plates incubated for 4 days at 37° C. The cells are then examined microscopically for evidence of morphological detransformation and cell mass is estimated by staining with methylene blue and measuring the absorbance at 620 nm. The results are shown in Table 1 below as the IC50 values in nM. Activity against a range of naturally occurring EGFr or c-erbB-2 over-expressing human tumour cell lines (BT474-breast, HN5-head and neck, N87-gastric and Calu3-lung) is assessed with selected compounds by the same methodology. The results are also shown in Table 1 below as the IC50 values in nM.

[6] = tested on: N87-gastric tumour cell line; test: Cell proliferation assay, N87; type: cell-based, human; settings: same methodology, 4 days
Description: as §2

[7] = tested on: Calu3-lung tumour cell line; test: Cell proliferation assay, Calu3; type: cell-based, human; settings: same methodology, 4 days
Description: as §2

[8] = tested on: HN5-head and neck tumour cell line; test: Cell proliferation assay, HN5; type: cell-based, human; settings: same methodology, 4 days
Description: as §2

[9] = target: T3, c-erbB-4 (baculovirus expressed, recombinant intracellular domain) (Homo sapiens, UniProt Q15303); test: Substrate phosphorylation assay, c-erbB-4; type: biochemical
T3 construct: baculovirus expressed, recombinant constructs of the intracellular domains of c-erbB-2 and c-erbB-4; made in house
Description: as §1

T1 sequence (P00533 25-1210): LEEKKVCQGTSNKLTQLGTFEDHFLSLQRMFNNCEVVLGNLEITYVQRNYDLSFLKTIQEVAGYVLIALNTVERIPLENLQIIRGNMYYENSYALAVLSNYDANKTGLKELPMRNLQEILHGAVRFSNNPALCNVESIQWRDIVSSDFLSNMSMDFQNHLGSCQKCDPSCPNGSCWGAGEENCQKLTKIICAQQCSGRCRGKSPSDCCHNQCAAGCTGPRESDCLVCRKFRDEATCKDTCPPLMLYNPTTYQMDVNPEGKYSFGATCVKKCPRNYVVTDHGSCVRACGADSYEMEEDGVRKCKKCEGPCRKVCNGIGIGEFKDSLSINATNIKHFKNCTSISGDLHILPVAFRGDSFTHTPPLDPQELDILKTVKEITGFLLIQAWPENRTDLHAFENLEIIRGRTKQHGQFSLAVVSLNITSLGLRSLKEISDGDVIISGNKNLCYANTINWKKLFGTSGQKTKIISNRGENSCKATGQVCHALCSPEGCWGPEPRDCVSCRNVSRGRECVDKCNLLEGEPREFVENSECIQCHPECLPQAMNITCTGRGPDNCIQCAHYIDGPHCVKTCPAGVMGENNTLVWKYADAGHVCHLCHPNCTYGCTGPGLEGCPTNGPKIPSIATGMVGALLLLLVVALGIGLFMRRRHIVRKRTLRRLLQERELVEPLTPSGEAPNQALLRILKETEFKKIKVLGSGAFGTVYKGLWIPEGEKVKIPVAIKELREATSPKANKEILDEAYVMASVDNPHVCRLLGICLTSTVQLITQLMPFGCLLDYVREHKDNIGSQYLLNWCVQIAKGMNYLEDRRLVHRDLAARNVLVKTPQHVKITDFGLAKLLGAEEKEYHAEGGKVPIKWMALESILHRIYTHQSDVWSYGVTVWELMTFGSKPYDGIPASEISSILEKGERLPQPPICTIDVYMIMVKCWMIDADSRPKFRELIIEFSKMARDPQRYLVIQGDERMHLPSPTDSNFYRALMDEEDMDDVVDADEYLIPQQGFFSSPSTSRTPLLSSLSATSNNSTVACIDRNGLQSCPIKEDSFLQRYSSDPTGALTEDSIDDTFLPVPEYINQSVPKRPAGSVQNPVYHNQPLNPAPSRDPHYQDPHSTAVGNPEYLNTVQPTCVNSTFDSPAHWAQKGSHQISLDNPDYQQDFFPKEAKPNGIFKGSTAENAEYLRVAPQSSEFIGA
T3 sequence (Q15303 676-1308 limits assumed): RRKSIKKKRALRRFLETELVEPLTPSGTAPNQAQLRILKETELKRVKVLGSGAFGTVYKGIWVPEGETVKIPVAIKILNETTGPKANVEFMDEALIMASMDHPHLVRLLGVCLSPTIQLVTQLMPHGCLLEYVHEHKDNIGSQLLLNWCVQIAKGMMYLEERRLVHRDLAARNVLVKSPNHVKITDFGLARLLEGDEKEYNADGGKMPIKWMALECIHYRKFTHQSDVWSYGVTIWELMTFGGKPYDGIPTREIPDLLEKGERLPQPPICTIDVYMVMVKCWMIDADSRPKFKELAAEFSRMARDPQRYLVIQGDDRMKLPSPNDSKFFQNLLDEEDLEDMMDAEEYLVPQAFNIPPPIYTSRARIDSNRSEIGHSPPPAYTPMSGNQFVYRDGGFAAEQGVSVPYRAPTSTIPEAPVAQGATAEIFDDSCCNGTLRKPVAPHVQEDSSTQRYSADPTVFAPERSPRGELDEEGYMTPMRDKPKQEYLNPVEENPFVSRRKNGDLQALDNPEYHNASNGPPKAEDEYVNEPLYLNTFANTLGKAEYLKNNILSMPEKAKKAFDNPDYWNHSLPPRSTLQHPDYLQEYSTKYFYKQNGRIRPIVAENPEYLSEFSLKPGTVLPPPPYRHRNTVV
T2 sequence (P04626 676-1255 limits assumed): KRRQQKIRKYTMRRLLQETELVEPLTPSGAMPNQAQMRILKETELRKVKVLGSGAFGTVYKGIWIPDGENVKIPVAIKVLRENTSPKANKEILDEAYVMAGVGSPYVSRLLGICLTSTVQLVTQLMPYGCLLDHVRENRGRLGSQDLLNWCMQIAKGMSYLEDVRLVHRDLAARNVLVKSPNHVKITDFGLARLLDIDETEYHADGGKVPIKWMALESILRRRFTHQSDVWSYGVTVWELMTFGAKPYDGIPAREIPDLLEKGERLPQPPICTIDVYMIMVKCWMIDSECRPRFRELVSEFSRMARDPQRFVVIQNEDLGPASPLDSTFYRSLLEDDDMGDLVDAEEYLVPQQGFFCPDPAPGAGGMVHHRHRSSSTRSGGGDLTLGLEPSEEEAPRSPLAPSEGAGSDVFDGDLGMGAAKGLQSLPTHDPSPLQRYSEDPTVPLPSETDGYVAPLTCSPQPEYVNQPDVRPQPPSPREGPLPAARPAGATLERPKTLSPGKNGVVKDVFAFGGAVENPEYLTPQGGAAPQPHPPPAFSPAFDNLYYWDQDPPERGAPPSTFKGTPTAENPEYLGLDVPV
HB4a cell line transformed by over-expression of c-erbB-2, sequence (P04626 whole entry, change not shown): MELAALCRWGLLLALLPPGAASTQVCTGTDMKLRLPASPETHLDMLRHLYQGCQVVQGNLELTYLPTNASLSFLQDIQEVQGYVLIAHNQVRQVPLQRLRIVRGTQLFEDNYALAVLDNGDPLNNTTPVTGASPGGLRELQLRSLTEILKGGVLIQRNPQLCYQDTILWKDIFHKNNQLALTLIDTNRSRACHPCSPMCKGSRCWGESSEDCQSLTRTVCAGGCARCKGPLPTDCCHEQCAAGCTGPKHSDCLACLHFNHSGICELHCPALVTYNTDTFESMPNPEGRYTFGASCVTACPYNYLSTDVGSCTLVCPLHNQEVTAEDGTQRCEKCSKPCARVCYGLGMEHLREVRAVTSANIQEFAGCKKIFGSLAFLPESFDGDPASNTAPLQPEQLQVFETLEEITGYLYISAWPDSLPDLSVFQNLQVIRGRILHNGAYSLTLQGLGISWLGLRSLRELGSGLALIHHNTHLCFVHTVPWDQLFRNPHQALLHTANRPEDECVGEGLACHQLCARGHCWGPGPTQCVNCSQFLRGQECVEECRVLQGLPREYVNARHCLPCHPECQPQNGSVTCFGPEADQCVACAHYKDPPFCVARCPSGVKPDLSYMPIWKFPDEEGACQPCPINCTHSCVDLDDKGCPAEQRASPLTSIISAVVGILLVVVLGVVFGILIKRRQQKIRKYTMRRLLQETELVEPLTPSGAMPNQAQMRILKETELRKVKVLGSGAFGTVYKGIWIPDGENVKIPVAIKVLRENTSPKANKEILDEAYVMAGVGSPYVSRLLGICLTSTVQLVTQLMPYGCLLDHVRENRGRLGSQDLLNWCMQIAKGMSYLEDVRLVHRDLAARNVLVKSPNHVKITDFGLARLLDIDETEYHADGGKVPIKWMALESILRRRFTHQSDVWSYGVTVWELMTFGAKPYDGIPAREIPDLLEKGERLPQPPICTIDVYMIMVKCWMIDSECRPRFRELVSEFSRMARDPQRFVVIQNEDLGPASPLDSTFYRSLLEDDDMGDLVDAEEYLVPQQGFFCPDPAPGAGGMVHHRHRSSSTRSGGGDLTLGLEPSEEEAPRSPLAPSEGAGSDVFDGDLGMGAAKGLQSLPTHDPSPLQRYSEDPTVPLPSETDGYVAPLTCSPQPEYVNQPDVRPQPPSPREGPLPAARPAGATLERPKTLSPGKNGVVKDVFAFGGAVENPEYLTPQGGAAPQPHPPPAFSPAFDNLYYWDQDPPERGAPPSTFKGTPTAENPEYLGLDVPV

| Structure (SMILES) | pIC50 [1] | pIC50 ([2]; 30 minutes, room temperature, ATP and peptide at Km concentrations) | GI50 [3] [nM] | pIC50 [4] | pIC50 [5] | pIC50 [6] | pIC50 [7] | pIC50 [8] | pIC50 [2] | pIC50 [9] | pIC50 ([4]; Homo sapiens, HB4a, 96 h) | pIC50 ([5]; Homo sapiens, BT-474, 96 h) | pIC50 ([6]; Homo sapiens, 96 h) | pIC50 ([7]; Homo sapiens, Calu-3, 96 h) | pIC50 ([8]; Homo sapiens, 96 h) |
| --- | --- | --- | --- | --- | --- | --- | --- | --- | --- | --- | --- | --- | --- | --- | --- |
| Cc1nnc(-c2ccc3ncnc(Nc4ccc(OCc5cccc(F)c5)cc4)c3c2)o1 [Example 29, hydrochloride] | 7.64 | 8.52 | 2500 | < 4.30 | 6.11 | 5.62 | 4.64 | 5.36 |  |  |  |  |  |  |  |
| Cn1cncc1-c1ccc2ncnc(Nc3ccc(OCc4ccccc4)cc3)c2c1 [Example 6, (4-Benzyloxy-phenyl)-(6-(3-methyl-3H-imidazol-4-yl)-quinazolin-4-yl)-amine] | 6.17 |  | 1600 |  |  |  |  |  | 6.96 | 6.00 | 4.80 | 5.72 | 5.74 | 5.24 | 5.28 |
| Cc1nnc(-c2ccc3ncnc(Nc4ccc5c(cnn5Cc5ccccc5)c4)c3c2)o1 [Example 41, (1-Benzyl-1H-indazol-5-yl)-(6-(5-methyl-1,3,4-oxadiazol-2-yl)-quinazolin-4-yl)-amine hydrochloride] | 8.70 |  | 610 |  |  |  |  |  | 8.00 | 6.00 | 4.46 | 6.59 | 5.85 | 5.28 | 6.01 |
| CS(=O)(=O)CCNCc1ccc(-c2ccc3ncnc(Nc4ccc5c(cnn5Cc5ccccc5)c4)c3c2)o1 [Example 19, (1-Benzyl-1H-indazol-5-yl)-(6-(5-((2-methanesulphonyl-ethylamino)-methyl)-furan-2-yl)-quinazolin-4-yl)-amine dihydrochloride] | 8.10 |  | 50 |  |  |  |  |  | 9.00 | 6.62 | 4.60 | 6.96 | 6.42 | 6.04 | 6.17 |
| NC(=O)[C@@H]1CCCN1Cc1ccc(-c2ccc3ncnc(Nc4ccc(OCc5ccccc5)cc4)c3c2)o1 [Example 11, (S)-1-(5-(4-(4-Benzyloxy-phenylamino)-quinazolin-6-yl)-furan-2-ylmethyl)-pyrrolidine-2-carboxylicacid amide] | 6.80 |  | 580 |  |  |  |  |  | 7.44 | 6.18 | 4.85 | 6.74 | 6.32 | 6.03 | 6.03 |
